The values that follow come from patent US20050282911A1, “Memantine for the prevention or reduction of suicidality and for treatment of major depression associated with suicidality” (priority 2003, published 2005).

Entries after “also recorded” stand apart in the source; their conditions may differ.

The conditions of data set [1]: cited from earlier work.
Data set [2] deals with patients with depression of Alzheimer's disease. In words: Study MEM-MD-17: memantine in depression of Alzheimer's disease, suicide items of CSDD, MADRS, HAMD. It counts as in vivo, human. Also noted: key to Change from Baseline in CSDD item #16 (suicide item): change in item score; 0=absent, 1=mild to intermittent, 2=severe; Change from Baseline in MADRS item #10 (suicide item) / Change from Baseline in HAMD item #3 (suicide item): scale not given here. On the procedure:
The objective of this study (MEM-MD-17) was to evaluate the safety and efficacy of memantine and memantine in combination with escitalopram in patients with depression of Alzheimer's disease.
The clinical study was conducted in two phases —12-weeks of open-label treatment with memantine (MEM) followed by 12-weeks of randomized double-blind treatment with memantine+placebo (MEM+PBO) or memantine+escitalopram (MEM+SCT).
Study design. Patients were started on memantine 5 mg/day which was increased to 10 mg/day at end of Week 1. The dose could be further increased to a maximum of 20 mg/day in patients with inadequate response in weekly increments of 5 mg. At end of Week 12, patients were randomized to one of the two treatment groups: MEM+PBO or MEM+SCT. The dose of memantine during the double-blind treatment period was fixed at the same level as at the end of Week 12 and the dose of escitalopram was fixed at 10 mg. Dose adjustments during the double-blind period were not permitted.
Patient Population. A total of 15 patients were enrolled in 2 sites. Three of the 15 patients discontinued during the open-label phase. The remaining 12 were randomized to double-blind treatment, 5 in the MEM+PBO treatment group, and 7 in the MEM+SCT treatment group. A total of 10 patients completed the study.
Endpoints. Several rating scales were used to assess efficacy for depression. The Cornell Scale for Depression in Dementia (CSDD); the HAMD; and the MADRS. The HAMD and MADRS have been described above.
CSDD. This is a […] scale which is subdivided into five sections: (A) Mood-Related Signs (questions 1-4); (B) Behavioral Disturbances (questions 5-8); (C) Physical Signs (questions 9-11); (D) Cyclic Functions (questions 12-15); and (E) Ideational Disturbances (questions 16-19). Question 16 is explicitly directed to suicidal ideation. The scoring system ranges from a=unable to evaluate; 0=absent; 1=mild to intermittent; and 2=severe.
Statistics. The efficacy analyses were based on the ITT population using both last observation carried forward (LOCF) and observed cases (OC) approaches. For each of the parameters, descriptive statistics were presented for the actual values and change from baseline by visit. For categorical variables, frequency distributions were presented.

Data set [3] concerns patients with major depressive disorder (MDD). In words: Open-label 12-week study of memantine in MDD (MEM-MD-09): safety and adverse events. It counts as in vivo, human. The procedure:
Study Design. The study was designed as a single-center, open-label, flexible dose 12-week study. Memantine was to be administered at 20 mg/day (10 mg b.i.d.) (titrated over a 4 week period), and, if warranted, up-titrated to a maximum of 40 mg/day (20 mg b.i.d.) (titrated in increments of 10 mg/day after Week 4).
Drug Treatment. All eight patients were initially given 5 mg/day and titrated over a 3-week period to a minimum dose of 20 mg/day. Patients with an unsatisfactory therapeutic response (CGI-I score greater than 2) could increase to a maximum of 40 mg/day (2 patients, 30 mg/day and 40 mg/day, respectively). One patient was titrated to 30 mg/day after Week 8, and […] after Week 10. The mean treatment duration was 82 days (range: 57-86 days) and the mean daily dose was 18.1 mg/day.
Safety. Safety was assessed throughout the course of the study by monitoring vital signs and spontaneously reported adverse events.

As to `CC12CC3CC(C)(C1)CC(N)(C3)C2.Cl` [Memantine, 1-amino-3,5-dimethyladamantane hydrochloride], the “solubility in aqueous media” value in data set [1] is “highly soluble”. In data set [2] (Week 12, ITT Population, N = 5 who received memantine throughout, baseline 0.4), the “Change from Baseline in CSDD item #16 (suicide item)” value is −0.4. Besides, the “Change from Baseline in HAMD item #3 (suicide item)” value in data set [2] (Week 12, ITT Population, N = 5 who received memantine throughout, baseline 0.8) is listed as −0.8. The “Change from Baseline in MADRS item #10 (suicide item)” value in data set [2] (Week 12, ITT Population, N = 5 who received memantine throughout, baseline 1.0) was −1.0. In data set [2] (Week 12, LOCF, ITT Population, N = 15, baseline 0.4), the “Change from Baseline in CSDD item #16 (suicide item)” value is −0.3. Moreover, in data set [2] (Week 12, LOCF, ITT Population, N = 15, baseline 0.5), the “Change from Baseline in HAMD item #3 (suicide item)” value was −0.5. For the same compound, the “Change from Baseline in MADRS item #10 (suicide item)” value in data set [2] (Week 12, LOCF, ITT Population, N = 15, baseline 0.9) is reported as −0.6. For the same compound, in data set [2] (Week 24, ITT Population, N = 5 who received memantine throughout, baseline 0.4), the “Change from Baseline in CSDD item #16 (suicide item)” value was −0.3. Moreover, the “Change from Baseline in HAMD item #3 (suicide item)” value in data set [2] (Week 24, ITT Population, N = 5 who received memantine throughout, baseline 0.8) was −0.5. The “Change from Baseline in MADRS item #10 (suicide item)” value in data set [2] (Week 24, ITT Population, N = 5 who received memantine throughout, baseline 1.0) is given as −0.5. For the same compound, in data set [2] (change from Baseline at Weeks 12 and 24, hydrochloride), the “suicidality as measured by 3 different depression rating instruments” value was “modest but consistent numerical improvement in suicidality; also recorded: trend towards reduced suicidal thoughts and ideation”. For the same compound, in data set [3] (20-40 mg/day, 12 weeks), the “clinical laboratory parameters, vital signs or ECG values” was “no safety findings of concern”; the “deaths, serious adverse events, discontinuations due to adverse events” value is “No deaths, serious adverse events or discontinuations due to adverse events”; the safety and tolerability entry is “safe and well tolerated”. Besides, in data set [3] (Safety Population, N = 8), the “Number of Patients Reporting TEAE: Amnesia” value came to 2 patients, the “Number of Patients Reporting TEAE: Anxiety” value was found to be 2 patients, the “Number of Patients Reporting TEAE: Dizziness” value turned out to be 2 patients and the “Number of Patients Reporting TEAE: Headache” value amounted to 2 patients. Also, in data set [3] (Safety Population, N = 8), the “Number of Patients Reporting TEAE: Influenza-like Symptoms” value was 2 patients, the “Number of Patients Reporting TEAE: Insomnia” value amounted to 2 patients, the “Number of Patients Reporting TEAE: Patients with at least one TEAE” value turned out to be 8 patients and the “Number of Patients Reporting TEAE: Somnolence” value turned out to be 3 patients.
